A short description of series [1]: Cytotoxicity against african green monkey Vero cells. Format: cell-based. The note with it: chlorocebus sabaeus, read-out: ED50 (the source's name).
Another series relates to KB. In words: Cytotoxicity against human KB cells. It counts as functional.

≈ marks a conversion by molar mass, not a printed value.

Turning to `CCCCCCC(O)CCC[C@H](O)[C@@H]1CC[C@@H]([C@@H]2CC[C@H]([C@H](O)CCCCCCCCCCCCC3=C[C@H](C)OC3=O)O2)O1` (stereo not given in full) [CAROLIN A], the CC50 in series [1] came to 2 ng/mL (≈ 3.21 nM). This compound returned an ED50 with KB of 1 ×10⁻⁷ ug/ml.

As for `CCCCCC(O)CCCC[C@H](O)[C@@H]1CC[C@@H]([C@@H]2CC[C@H]([C@H](O)CCCCCCCCCCCCC3=C[C@H](C)OC3=O)O2)O1` (stereo not given in full) [CAROLIN B], the CC50 in series [1] is 3.7 ng/mL (≈ 5.94 nM). In addition, in the series with KB, the ED50 was 5 ×10⁻⁶ ug/ml.

Turning to `CCCCCCC(O)CCC[C@H](O)[C@@H]1CC[C@@H]([C@@H]2CC[C@H]([C@H](O)CCCCCCCCCCC3=C[C@H](C)OC3=O)O2)O1` (stereo not given in full) [CAROLIN C], the CC50 in series [1] was 50 ng/mL (≈ 84.1 nM). Moreover, in the series on KB, the ED50 was found to be 2 ×10⁻⁴ ug/ml.

On to `CCCCCC(O)C(O)CCC[C@H](O)[C@H]1CC[C@@H]([C@@H]2CC[C@@H]([C@@H](O)CCCCCCCCCCCCC3=C[C@H](C)OC3=O)O2)O1` (stereo not given in full) [SPINENCIN], for which the CC50 in series [1] is 6 ng/mL (≈ 9.39 nM). In the series on KB, this compound had an ED50 of 1 ×10⁻⁵ ug/ml.

In the case of `CCCCCC[C@H](O)CCC[C@H](O)[C@H]1CC[C@H]([C@H]2CC[C@H]([C@H](O)CCCCCCCCCCCCC3=C[C@H](C)OC3=O)O2)O1` [SQUAMOCIN], the CC50 in series [1] was determined as 10 ng/mL (≈ 16.1 nM). For the same compound, the ED50 in the series on KB came to 4 ×10⁻⁴ ug/ml.

Source of the values: ChEMBL document CHEMBL1158846, “Three new bistetrahydrofuran acetogenins from the seeds of Annona spinescens” (J Nat Prod, 1998).
